Assay results as given in patent publication US6531512B1, “Method of treating cancer in patients having a deficiency in p53 tumor suppressor gene” (Health Research Inc., priority 1998, dated 2003).
Entries after “also recorded” stand apart in the source; their conditions may differ. Marks after values point to notes of the source that are not given here.

Assays:
[1] = test system: SK-MEL-28 human melanoma cells; experiment: Cell growth / apoptotic response of SK-MEL-28 cells (Coulter Counter, growth kinetics); format: cell-based
Method: MALME-3M human melanoma cells containing wt-p53 (American Tissue Type Culture Collection, Bethesda, Md.) and human SK-MEL-28 cells containing mt-p53 (American Tissue Type Culture Collection, Bethesda, Md.) were cultured as a monolayer in RPMI 1640 medium containing 10% Nu-Serum (Collaborative Research Products, Bedford, Mass.), 1 mM aminoguanidine, penicillin (50 units/ml) and streptomycin (50 μg/ml) as described by Kramer et al, J. Biol. Chem., 270:2124-32 (1995) and Kramer et al., Cancer Res., 57:5521-5527 (1997).
MALME-3M cells were cultured as described in Example 1. The cells were seeded by adding 1×10^5 cells to a T-25 vented cell culture flask. After 24 hours, the asynchronous cell cultures were treated with 10 μM N^1, N^11-diethylnorspermine (DENSPM) prepared by dissolving DENSPM in distilled water and sterilizing the solution by filtration through a 0.22 micron Millipore membrane. The cells were treated by continuous exposure to DENSPM for 6 days (i.e., the polyamine was added to the cell culture at T=0 and the culture was incubated for the desired amount of time). The number of viable MALME-3M cells were monitored electronically using a Model ZM Coulter Counter (Coulter Electronics, Hialeah, Fla.). Untreated MALME-3M cell cultures were used as controls.
(§1) MALME-3M human melanoma cells were cultured as described in Example 1 and treated continuously with 10 μM DENSPM or 10 μM spermine (SPM) for 48 hours. SK-MEL-28 cells were also cultured as described in Example 1 and treated with 10 μM DENSPM for 24 hours. Untreated cells were used as a control.
The effect of DENSPM and spermine on cell growth was monitored using a Coulter Counter (see Example 2). The effect on cell cycle was monitored by flow cytometry as described in Example 3. […]

[2] = test system: MALME-3M human melanoma cells; experiment: Cell cycle distribution of MALME-3M cells by flow cytometry; format: cell-based
Method: (§2) MALME-3M cells were cultured as described in Example 1 and treated with 10 μM DENSPM as described in Example 2. Cell cycle arrest was monitored using a FACScan flow cytometry unit (Becton Dickinson, San Jose, Calif.) according to the method of Krishan (1975) J. Cell Biol. 66:[…]. Untreated MALME-3M cell cultures were used as controls.
Cell cycle arrest of serum synchronized MALME-3M cells was also monitored using flow cytometry. MALME-3M cells were synchronized in G0/G1 by replacing cell culture media containing 10% NuSerum (see Example 1) with media lacking NuSerum and incubating the cultures for 120 hours. The synchronized cells were released by the addition of 10% NuSerum (control culture) or 10% NuSerum plus 10 μM DENSPM. The cells were then grown continuously in the presence of serum (control) or DENSPM for up to 96 hours. The untreated cells (control) re-established an asynchronous profile (i.e., progressed through the cell cycle) by 60 hours.
(§3) The effect of DENSPM and spermine on cell growth was monitored using a Coulter Counter (see Example 2). The effect on cell cycle was monitored by flow cytometry as described in Example 3.

[3] = test system: SK-MEL-28 human melanoma cells; experiment: Cell cycle distribution of SK-MEL-28 cells by flow cytometry; format: cell-based; conditions: SK-MEL-28 (mt-p53), attached cells, 10 μM, 24 hours treatment (footnote)
Method: as §2, §1, §3

mRNA for p53 and p21 = experiment: Northern blot of p53 and p21 mRNA in MALME-3M cells; format: cell-based, human; conditions: asynchronous, 10 μM
Method: Asynchronously growing MALME-3M cells were treated for 0 to 48 hours with 10 μM DENSPM as described in Example 2. Northern blots were used to detect mRNA for p53 and p21. The Northern blot procedure is described by Fogel-Petrovic et al. in Molec. Pharn, 52:69-74 (1997); and Biochemistry, 35:14436-14444 (1996). cDNA probes used in Nothern blot hybridization of p21 and p53 mRNA were obtained, respectively, from Dr. Bert Vogelstein (Johns Hopkins Oncology Center, Baltimore, Md.; El-Deiry et al., Cell, 75:817-825) and from Dr. Stephen Friend (Seattle, Wash.; Ishioka et al., Oncogene 10:1485-1492 (1995)). The relative increase in mRNA with analog treatment was normalized to the […] (GAPDH) signal to account for lane loading differences.

[4] = test system: S-adenosylmethionine decarboxylase (SAMDC); experiment: Polyamine enzyme activity in treated melanoma cells: SAMDC; format: cell-based, human; conditions: 10 μM
Method: as §1, with “treated” for “treated continuously”, “as described in Example 4.” for “for 48 hours.”, “as describe in Example 4.” for “for 24 hours.”
After treatment with DENSPM or spermine, biochemical parameters including polyamine enzymes activity, polyamine pools and analog accumulation were monitored as described by Kramer et al, J. Biol. Chem., 270:2124-32 (1995) and Kramer et al., Cancer Res., 57:5521-5527 (1997). Polyamine enzyme activity was monitored for ornithine […] (ODC); S-adenosylmethionine decarboxylase (SAMDC); and spermidine/spermine N^1-acetyltransferase (SSAT). Polyamine pools was monitored for putrescine (Put); spermidine (Spd); and spermine (Spm).

SK-MEL-28 cells = experiment: Apoptosis by proton NMR of membrane lipids (methylene/methyl ratio); format: cell-based, human; conditions: 10 μM
Method: Apoptosis of MALME-3M and SK-MEL-28 cells due to treatment with 10 μM DENSPM was quantified using proton nuclear magnetic resonance (NMR) spectroscopy. NMR was used to detect membrane phospholipid spectral intensity changes which correlate with surface expression of phosphatidylserine, an early marker of apoptosis. Changes in methylene and methyl peaks were detected by the […] described by Blankenberg et al., Blood, 89:3778-3786 (1997).
Intensity changes in membrane lipids was measured using NMR after 72 hours of continuous treatment with 10 μM DENSPM. […] The SK-MEL-28 cells undergo a rapid spectral ratio change which correlates with the massive cell loss seen in FIG. 4. Maximal cell death occurred by 48 hours in SK-MEL-28 cells. The data represent the mean ratio±standard deviation.
For perspective, a methylene to methyl spectral ratio of about 1 is typical of untreated cells while a ratio of about 3 is the maximum attainable with most apoptotic responses. Thus, the ratio of 2.6 observed with DENSPM-treated SK-MEL-28 cells at 48 hours represents a full scale response.

CCNCCCNCCCNCCCNCC [DENSPM, N^1,N^11-diethylnorspermine]
% Growth Control ([1]; SK-MEL-28 (mt-p53), 10 μM, Table 2, 24 hours): 26%
% Control Growth ([1]; SK-MEL-28 cells, 24 hours, Table 4): 30%
cell growth and/or apoptosis response ([1]; SK-MEL-28 cells, growth kinetic analysis): massive and rapid apoptotic response; also recorded: rapid cytotoxic response
% Total Cells at 48 hours, G1 ([2]; MALME-3M (wt-p53), asynchronous, 10 μM, 48 hours): 88%
cell cycle distribution of serum synchronized cells ([2]; MALME-3M synchronized in G0/G1, released with serum plus 10 μM, up to 96 hours): accumulated in the G1 and G2/M phases of the cycle but not in S phase
onset of G1 arrest after treatment ([2]; MALME-3M, asynchronous, 10 μM): about 16 hours
% Total Cells, G1 [3]: 74** %
% Total Cells, G2/M [3]: 9** %
% Total Cells, S [3]: 17** %
start of p21 mRNA increase (mRNA for p53 and p21): 12 h
p53 mRNA (mRNA for p53 and p21; 0 to 48 hours, normalized to GAPDH): remained constant
p21 mRNA increase (mRNA for p53 and p21; 48 hours, normalized to GAPDH): about 20 fold
SAMDC activity ([4]; MALME-3M (wt-p53), Table 2 (24 hours treatment)): 40 pmol/hr/mg protein
SAMDC activity ([4]; SK-MEL-28 (mt-p53), Table 2, 24 hours): 25 pmol/hr/mg protein
time of maximal cell death (SK-MEL-28 cells): ≤ 48 h
methylene to methyl spectral ratio (SK-MEL-28 cells; 48 hours): 2.6
